Measured values: patent US10689346B2, “Human plasma kallikrein inhibitors” (BioCryst Pharmaceuticals, Inc., priority 2014, dated 2020)

What was measured:
human plasma kallikrein = human plasma kallikrein (Homo sapiens (Human), UniProt P03952); experiment: Plasma Kallikrein Activity Assay; assay type: biochemical
Procedure: Plasma Kallikrein Activity Assay.
The effect of compounds of the invention on human plasma kallikrein activity was determined using the chromogenic substrates (DiaPharma Group, Inc., West Chester, Ohio, USA). In these experiments, 2 nM kallikrein (Enzyme Research Laboratories, South Bend, Ind., USA) was incubated with 80 μM S2302 (H-D-Pro-Phe-Arg-p-nitroaniline) in the absence or presence of increasing concentrations of compounds of the invention in a final volume of 200 μL Tris-HCl buffer (200 mM NaCl; 2.5 mM CaCl2; 50 mM Tris-HCl, pH 7.8).
Data were analyzed using SigmaPlot software (Systat Software, Inc., San Jose, Calif., USA) (Four Parameter Logistic Curve).

[1] = system: hereditary angioedema (HAE); details: cited from earlier work
[2] = system: middle cerebral artery occlusion (MCAO); details: mouse model of MCAO; cited from earlier work
[3] = system: LPS- or bacterial-induced sepsis; details: LPS- or bacterial-induced sepsis in animals; cited from earlier work
sepsis = sepsis patients; cited from earlier work
ischemic stroke = details: animal model of ischemic stroke; cited from earlier work

Chain of human plasma kallikrein (P03952 whole entry, looked up): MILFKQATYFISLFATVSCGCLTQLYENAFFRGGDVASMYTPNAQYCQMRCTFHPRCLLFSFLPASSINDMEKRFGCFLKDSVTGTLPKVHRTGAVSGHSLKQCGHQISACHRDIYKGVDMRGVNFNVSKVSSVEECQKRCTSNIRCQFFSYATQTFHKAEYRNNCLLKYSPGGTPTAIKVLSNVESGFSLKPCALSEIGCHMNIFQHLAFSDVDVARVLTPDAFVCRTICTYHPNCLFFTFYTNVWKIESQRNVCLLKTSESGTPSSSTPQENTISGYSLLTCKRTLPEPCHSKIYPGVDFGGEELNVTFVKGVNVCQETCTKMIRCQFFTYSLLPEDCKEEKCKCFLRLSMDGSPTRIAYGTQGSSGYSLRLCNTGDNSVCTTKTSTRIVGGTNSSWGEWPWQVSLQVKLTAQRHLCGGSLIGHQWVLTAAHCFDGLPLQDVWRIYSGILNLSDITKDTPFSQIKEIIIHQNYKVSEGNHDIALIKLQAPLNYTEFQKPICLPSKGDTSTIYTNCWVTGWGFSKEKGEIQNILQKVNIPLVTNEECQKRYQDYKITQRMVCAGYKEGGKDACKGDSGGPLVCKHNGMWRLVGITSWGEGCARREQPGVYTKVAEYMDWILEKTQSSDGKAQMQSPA
Chain of human plasma kallikrein (P03952 whole entry partner, looked up): as the sequence (P03952 whole entry, looked up) above

Molecule `CN(C1CC1)C(c1cccc(N)c1)c1cccc(NC(=O)c2cc(C(F)(F)F)nn2-c2cccc(CN)c2)c1` (centres unmarked) [Compound 102b, 1-(3-(aminomethyl)phenyl)-N-(3-((3-aminophenyl)(cyclopropyl-methylamino)methyl)phenyl)-3-(trifluoromethyl)-1H-pyrazole-5-carboxamide] has a Ki (human plasma kallikrein) of 0.0001 to 0.05 µM.
In the case of `NC(N)=NCCC[C@@H](N)C(=O)N[C@@H](CCCN=C(N)N)C(=O)N1CCC[C@H]1C(=O)N1C[C@H](O)C[C@H]1C(=O)NCC(=O)N[C@@H](Cc1cccs1)C(=O)N[C@@H](CO)C(=O)N1Cc2ccccc2C[C@@H]1C(=O)N1[C@H](C(=O)N[C@@H](CCCN=C(N)N)C(=O)O)C[C@@H]2CCCC[C@@H]21` [Icatibant], the “efficacy in treating HAE” value ([1]; HAE) is given as “effective in treating HAE”.
In the case of “C1-inhibitor: "a physiological inhibitor (C1-inhibitor)"; "reduced infarct size in a mouse model of middle cerebral artery occlusion" [Compound C1-inhibitor]”, the infarct size [2] is given as “reduced infarct size”, the lesions [3] is given as “reduce lesions” and the “vascular permeability in multiple organs” value [3] is given as “reduce vascular permeability”. For the same molecule, the clinical improvement (sepsis) was “Clinical improvement was observed”.
In the case of “H-D-Pro-Phe-Arg-chloromethylketone [H-D-Pro-Phe-Arg-chloromethylketone (CMK)]”, the lesions [3] is given as “reduce lesions”.
For ecallantide [DX-88], the edema ([1]; patients with hereditary angioedema (HAE)) is given as “alleviates edema”, the brain edema (ischemic stroke) is given as “reduced” and the infarct volume (ischemic stroke) is given as “reduced”. For the same molecule, the neurological deficits (ischemic stroke) was “reduced”.
